According to article PMC7180572, “5-Alkylamino-N-phenylpyrazine-2-carboxamides: Design, Preparation, and Antimycobacterial Evaluation” (Molecules, 2020):
Converted amounts (≈) assume the structure as drawn. Where two headings read alike, the source gives them in different places.

Key:
[1] = system: Staphylococcus aureus spp.aureus ATCC 29213, CCM 4223; experiment: Antibacterial microdilution broth method (EUCAST); type: cell-based; conditions: read-out: MIC SA
[2] = system: Acinetobacter baumanii ATCC 19606, DSM 30007; experiment: Antibacterial microdilution broth method (EUCAST); type: cell-based; conditions: Acinetobacter baumannii
[3] = system: Trichophyton interdigitale ATCC 9533, CCM 8377; experiment: Antifungal microdilution broth method (EUCAST); type: cell-based; conditions: read-out: MIC TI
[4] = system: Klebsiella pneumoniae ATCC 10031, CCM 4415; experiment: Antibacterial microdilution broth method (EUCAST)
[5] = system: Candida krusei ATCC 6258, CCM 8271; experiment: Antifungal microdilution broth method (EUCAST); type: cell-based; conditions: Pichia kudriavzevii
[6] = system: Escherichia coli ATCC 25922, CCM 3954; experiment: Antibacterial microdilution broth method (EUCAST); type: cell-based; conditions: read-out: MIC EC
[7] = system: Candida tropicalis ATCC 750, CCM 8264; experiment: Antifungal microdilution broth method (EUCAST); type: cell-based; conditions: read-out: MIC CT
[8] = system: Mycobacterium smegmatis DSM 43465 (ATCC 607); experiment: Microdilution broth, modified Microplate Alamar Blue Assay, whole cell growth inhibition; type: cell-based; conditions: Mycolicibacterium smegmatis, read-out: MIC Mycobacterium smegmatis
[9] = system: Candida parapsilosis ATCC 22019, CCM 8260; experiment: Antifungal microdilution broth method (EUCAST); type: cell-based; conditions: Lodderomyces parapsilosis
[10] = system: Candida albicans ATCC 24433, CCM 8320; experiment: Antifungal microdilution broth method (EUCAST); type: cell-based
[11] = system: Absidia corymbifera CCM 8077 (Lichtheimia corymbifera); experiment: Antifungal microdilution broth method (EUCAST); type: cell-based; conditions: read-out: MIC AC
[12] = system: Aspergillus flavus CCM 8363; experiment: Antifungal microdilution broth method (EUCAST); type: cell-based; conditions: read-out: MIC AFla
[13] = system: Enterococcus faecalis ATCC 29212, CCM 4224; experiment: Antibacterial microdilution broth method (EUCAST); type: cell-based; conditions: read-out: MIC EF
[14] = system: Mycobacterium tuberculosis H37Ra ITM-M006710 (ATCC 9431); experiment: Microdilution broth, modified Microplate Alamar Blue Assay, whole cell growth inhibition; type: cell-based; conditions: Mycobacterium tuberculosis; in vitro, Middlebrook 7H9 broth, resazurin; read-out: MIC Mtb H37Ra
[15] = system: Staphylococcus aureus methicillin resistant ATCC 43300, CCM 4750; experiment: microbe, parasite or virus in culture; type: cell-based; conditions: ATCC 43300 / CCM 4750 / MRSA, read-out: MIC MRSA
[16] = system: Mycobacterium aurum DSM 43999 (ATCC 23366); experiment: Microdilution broth, modified Microplate Alamar Blue Assay, whole cell growth inhibition; type: cell-based; conditions: Mycolicibacterium aurum, read-out: MIC Mycobacterium aurum
[17] = system: Staphylococcus epidermidis ATCC 12228, CCM 4418; experiment: Antibacterial microdilution broth method (EUCAST); type: cell-based; conditions: read-out: MIC SE
[18] = system: Pseudomonas aeruginosa ATCC 27853, CCM 3955; experiment: Antibacterial microdilution broth method (EUCAST); type: cell-based; conditions: read-out: MIC PA
HepG2 cells = experiment: HepG2 cytotoxicity, CellTiter 96 (MTS) assay; type: cell-based, human; conditions: for IC50: Homo sapiens, HepG2, 24 h, read-out: HepG2 IC50; for SI, selectivity index: IC50 (HepG2)/MIC against Mtb H37Ra (in µM)
[19] = system: Aspergillus fumigatus ATCC 204305; experiment: Antifungal microdilution broth method (EUCAST); type: cell-based; conditions: read-out: MIC AF

## CCCCCCCCNc1cnc(C(=O)Nc2cccc(C(F)(F)F)c2)cn1 [Compound 1f, 5-(Octylamino)-N-(3-(trifluoromethyl)phenyl)pyrazine-2-carboxamide]
[1]; 24 h
  MIC: > 500 µM
[1]; 48 h
  MIC: > 500 µM
[2]; 24h
  MIC: > 500 µM
[2]; 48h
  MIC: > 500 µM
[3]; 72 h
  MIC: > 500 µM
[3]; 120 h
  MIC: > 500 µM
[4]; 24h
  MIC KP: > 500 µM
[4]; 48h
  MIC KP: > 500 µM
[5]; 24 h, read-out: MIC CK
  MIC: > 500 µM
[5]; 48 h, read-out: MIC CK
  MIC: > 500 µM
[6]; 24 h
  MIC: > 500 µM
[6]; 48 h
  MIC: > 500 µM
[7]; 24 h
  MIC: > 500 µM
[7]; 48 h
  MIC: > 500 µM
[8]
  MIC: ≥ 500 µg/mL
[9]; 24 h, read-out: MIC CP
  MIC: > 500 µM
[9]; 48 h, read-out: MIC CP
  MIC: > 500 µM
[10]; 24 h, read-out: MIC CA
  MIC: > 500 µM
[10]; 48 h, read-out: MIC CA
  MIC: > 500 µM
[11]; CCM8077, 24 h
  MIC: > 500 µM
[11]; CCM8077, 48 h
  MIC: > 500 µM
[12]; CCM8363, 24 h
  MIC: > 500 µM
[12]; CCM8363, 48 h
  MIC: > 500 µM
other
  melting point: 135 to 136 °C
[13]; 24 h
  MIC: > 500 µM
[13]; 48 h
  MIC: > 500 µM
[14]
  MIC: ≥ 500 µg/mL
[15]; 24 h
  MIC: > 500 µM
[15]; 48 h
  MIC: > 500 µM
[16]
  MIC: ≥ 500 µg/mL
[17]; 24 h
  MIC: > 500 µM
[17]; 48 h
  MIC: > 500 µM
[18]; 72 h
  MIC: > 500 µM
[18]; 120 h
  MIC: > 500 µM
HepG2 cells
  IC50: 66.2 µM
[19]; ATCC204305, 24 h
  MIC: > 500 µM
[19]; ATCC204305, 48 h
  MIC: > 500 µM

## CCCNc1cnc(C(=O)Nc2cccc(O)c2)cn1 [Compound 2a, N-(3-hydroxyphenyl)-5-(propylamino)pyrazine-2-carboxamide]
[1]; 24 h
  MIC: > 125 µM
[1]; 48 h
  MIC: > 125 µM
[2]; 24h
  MIC: > 125 µM
[2]; 48h
  MIC: > 125 µM
[3]; 72 h
  MIC: > 125 µM
[3]; 120 h
  MIC: > 125 µM
[4]; 24h
  MIC KP: > 125 µM
[4]; 48h
  MIC KP: > 125 µM
[5]; 24 h, read-out: MIC CK
  MIC: 62.5 µM (≈ 17 µg/mL)
[5]; 48 h, read-out: MIC CK
  MIC: 62.5 µM (≈ 17 µg/mL)
[5]; read-out: MIC CK (Candida krusei)
  MIC: 62.5 µM (≈ 17 µg/mL)
[6]; 24 h
  MIC: > 125 µM
[6]; 48 h
  MIC: > 125 µM
[7]; 24 h
  MIC: > 125 µM
[7]; 48 h
  MIC: > 125 µM
[8]
  MIC: ≥ 500 µg/mL
[9]; 24 h, read-out: MIC CP
  MIC: > 125 µM
[9]; 48 h, read-out: MIC CP
  MIC: > 125 µM
[9]; read-out: MIC CP (Candida parapsilosis)
  MIC: > 125 µM
[10]; 24 h, read-out: MIC CA
  MIC: > 125 µM
[10]; 48 h, read-out: MIC CA
  MIC: > 125 µM
[10]; read-out: MIC CA (Candida albicans)
  MIC: > 125 µM
[11]; CCM8077, 24 h
  MIC: > 125 µM
[11]; CCM8077, 48 h
  MIC: > 125 µM
[12]; CCM8363, 24 h
  MIC: > 125 µM
[12]; CCM8363, 48 h
  MIC: > 125 µM
other
  melting point: 194 to 195 °C
[13]; 24 h
  MIC: > 125 µM
[13]; 48 h
  MIC: > 125 µM
[14]
  MIC: 7.81 µg/mL (≈ 28.7 µM)
[15]; 24 h
  MIC: > 125 µM
[15]; 48 h
  MIC: > 125 µM
[16]
  MIC: ≥ 500 µg/mL
[17]; 24 h
  MIC: > 125 µM
[17]; 48 h
  MIC: > 125 µM
[18]; 72 h
  MIC: > 125 µM
[18]; 120 h
  MIC: > 125 µM
HepG2 cells
  IC50: > 100 µM
  SI, selectivity index: >3.5
[19]; ATCC204305, 24 h
  MIC: > 125 µM
[19]; ATCC204305, 48 h
  MIC: > 125 µM

## CCCCNc1cnc(C(=O)Nc2cccc(O)c2)cn1 [Compound 2b, 5-(Butylamino)pyrazine-N-(3-hydroxyphenyl)-2-carboxamide]
[1]; 24 h
  MIC: > 500 µM
[1]; 48 h
  MIC: > 500 µM
[2]; 24h
  MIC: > 500 µM
[2]; 48h
  MIC: > 500 µM
[3]; 72 h
  MIC: > 125 µM
[3]; 120 h
  MIC: > 125 µM
[4]; 24h
  MIC KP: > 500 µM
[4]; 48h
  MIC KP: > 500 µM
[5]; 24 h, read-out: MIC CK
  MIC: > 125 µM
[5]; 48 h, read-out: MIC CK
  MIC: > 125 µM
[6]; 24 h
  MIC: > 500 µM
[6]; 48 h
  MIC: > 500 µM
[7]; 24 h
  MIC: > 125 µM
[7]; 48 h
  MIC: > 125 µM
[8]
  MIC: ≥ 500 µg/mL
[9]; 24 h, read-out: MIC CP
  MIC: > 125 µM
[9]; 48 h, read-out: MIC CP
  MIC: > 125 µM
[10]; 24 h, read-out: MIC CA
  MIC: > 125 µM
[10]; 48 h, read-out: MIC CA
  MIC: > 125 µM
[11]; CCM8077, 24 h
  MIC: > 125 µM
[11]; CCM8077, 48 h
  MIC: > 125 µM
[12]; CCM8363, 24 h
  MIC: > 125 µM
[12]; CCM8363, 48 h
  MIC: > 125 µM
other
  melting point: 203 to 204 °C
[13]; 24 h
  MIC: > 500 µM
[13]; 48 h
  MIC: > 500 µM
[14]
  MIC: 7.81 µg/mL (≈ 27.3 µM)
[15]; 24 h
  MIC: > 500 µM
[15]; 48 h
  MIC: > 500 µM
[16]
  MIC: ≥ 500 µg/mL
[17]; 24 h
  MIC: > 500 µM
[17]; 48 h
  MIC: > 500 µM
[18]; 72 h
  MIC: > 500 µM
[18]; 120 h
  MIC: > 500 µM
HepG2 cells
  IC50: > 25 µM
  SI, selectivity index: >0.92
[19]; ATCC204305, 24 h
  MIC: > 125 µM
[19]; ATCC204305, 48 h
  MIC: > 125 µM

## CCCCCCCCNc1cnc(C(=O)Nc2cccc(O)c2)cn1 [Compound 2f, N-(3-hydroxyphenyl)-5-(octylamino)pyrazine-2-carboxamide]
[1]; 24 h
  MIC: > 125 µM
[1]; 48 h
  MIC: > 125 µM
[2]; 24h
  MIC: > 125 µM
[2]; 48h
  MIC: > 125 µM
[3]; 72 h
  MIC: > 125 µM
[3]; 120 h
  MIC: > 125 µM
[4]; 24h
  MIC KP: > 125 µM
[4]; 48h
  MIC KP: > 125 µM
[5]; 24 h, read-out: MIC CK
  MIC: > 125 µM
[5]; 48 h, read-out: MIC CK
  MIC: > 125 µM
[6]; 24 h
  MIC: > 125 µM
[6]; 48 h
  MIC: > 125 µM
[7]; 24 h
  MIC: > 125 µM
[7]; 48 h
  MIC: > 125 µM
[8]
  MIC: 250 µg/mL (≈ 730 µM)
[9]; 24 h, read-out: MIC CP
  MIC: > 125 µM
[9]; 48 h, read-out: MIC CP
  MIC: > 125 µM
[10]; 24 h, read-out: MIC CA
  MIC: > 125 µM
[10]; 48 h, read-out: MIC CA
  MIC: > 125 µM
[11]; CCM8077, 24 h
  MIC: > 125 µM
[11]; CCM8077, 48 h
  MIC: > 125 µM
[12]; CCM8363, 24 h
  MIC: > 125 µM
[12]; CCM8363, 48 h
  MIC: > 125 µM
other
  melting point: 223 to 225.9 °C
[13]; 24 h
  MIC: > 125 µM
[13]; 48 h
  MIC: > 125 µM
[14]
  MIC: ≥ 500 µg/mL
[15]; 24 h
  MIC: > 125 µM
[15]; 48 h
  MIC: > 125 µM
[16]
  MIC: ≥ 500 µg/mL
[17]; 24 h
  MIC: > 125 µM
[17]; 48 h
  MIC: > 125 µM
[18]; 72 h
  MIC: > 125 µM
[18]; 120 h
  MIC: > 125 µM
HepG2 cells
  IC50: > 50 µM
[19]; ATCC204305, 24 h
  MIC: > 125 µM
[19]; ATCC204305, 48 h
  MIC: > 125 µM
